Structures are written as SMILES.

This note sets out measurements from US11866431B2, “Bicyclic compounds” (Vivace Therapeutics, Inc., priority 2018, dated 2024).

The subject of the first experiment is 8XTBD luciferase reporter (YAP reporter) in HEK293T cells. Description: YAP Reporter Assay. The experiment is classed as cell-based. The settings on record: Homo sapiens, HEK-293T, 24 h, read-out: Firefly Luciferase IC50 (μM). The method, boiled down: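 HEK293T cells stably carrying 8XTBD firefly luciferase and TK-renilla (3×10^3 cells/well) dosed 3-4 h after plating with compounds from 3 μM final, 1:3 dilution, 10 points, quadruplicates. After 24 h at 37° C, Dual-Glo readings gave IC50 and maximum inhibition reported separately for firefly and renilla.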
For orientation: A reporter such as luciferase makes a cellular process visible.
What is called IC50 is the concentration at which inhibition is half-maximal. As to `CC(C)NC(=O)c1cnc2c(-c3ccc(C(F)(F)F)cc3)cc(F)c(F)c2c1` [Compound 72, 5,6-Difluoro-N-isopropyl-8-(4-(trifluoromethyl)phenyl)quinoline-3-carboxamide], the IC50 was < 0.1 µM.

The experiment is the same for the next values; noted with them: Homo sapiens, HEK-293T; HEK293T cells stably transfected with 8XTBD luciferase reporter and pRLTK; 24-hr incubation; top concentration 3 μM; read-out: Firefly Luciferase IC50.
`CC(C)NC(=O)c1ccc2c(-c3ccc(C(F)(F)F)cc3)cc3nncn3c2c1` [Compound 307, N-Isopropyl-5-(4-(trifluoromethyl)phenyl)-[1,2,4]triazolo[4,3-a]quinoline-8-carboxamide]: the IC50 lay in the range of 0.1 to 1 µM.
On the same count and under the same terms, the result for `COC[C@@H](C)NC(=O)c1cnc2c(-c3ccc(C(F)(F)F)cc3)cc(OC)cc2c1` [Compound 107, 6-methoxy-N-[(1R)-2-methoxy-1-methyl-ethyl]-8-[4-(trifluoromethyl)phenyl]quinoline-3-carboxamide] reads < 0.1 µM; that for `N#C/C=C/CCNC(=O)c1ccc2c(-c3ccc(C(F)(F)F)cc3)cccc2c1` [Compound 217, N-[(E)-4-cyanobut-3-enyl]-5-[4-(trifluoromethyl)phenyl]naphthalene-2-carboxamide], < 0.1 µM; that for `COCC(C)(C)NC(=O)c1ccc2c(-c3ccc(C(F)(F)F)cc3)cccc2c1` [Compound 212, N-(1-methoxy-2-methylpropan-2-yl)-5-(4-(trifluoromethyl)phenyl)-2-naphthamide], < 0.1 µM.
On the same count and under the same terms, the result for `CCOc1cc(-c2ccc(C(F)(F)F)cc2)c2ncc(C(=O)O)cc2c1` [Compound 327, 6-ethoxy-8-(4-(trifluoromethyl)phenyl)quinoline-3-carboxylic Acid] reads < 0.1 µM; that for `C[C@@H](NC(=O)c1ccc2c(-c3ccc(C(F)(F)F)cc3)cccc2c1)C1COC1` [Compound 270, (R)—N-(1-(oxetan-3-yl)ethyl)-5-(4-(trifluoromethyl)phenyl)-2-naphthamide], 0.1 to 1 µM.
The same measure, in the same setting: the result for `O=C(NCc1ccnc(F)c1)c1ccc2c(-c3ccc(C(F)(F)F)cc3)cccc2c1` [Compound 211, N-((2-fluoropyridin-4-yl)methyl)-5-(4-(trifluoromethyl)phenyl)-2-naphthamide] reads < 0.1 µM; that for `C[C@H](NC(=O)c1ccc2c(-c3ccc(C(F)(F)F)cc3)cccc2c1)c1nnnn1C` [Compound 280, (S)—N-(1-(1-methyl-1H-tetrazol-5-yl)ethyl)-5-(4-(trifluoromethyl)phenyl)-2-naphthamide], 1 to 3 µM.
For `NC(=O)/C=C/CCNC(=O)c1ccc2c(-c3ccc(C(F)(F)F)cc3)cccc2c1` [Compound 222, N-[(E)-5-amino-5-oxo-pent-3-enyl]-5-[4-(trifluoromethyl)phenyl]naphthalene-2-carboxamide], the IC50 was < 0.1 µM.
Still for that read-out and setting: the same measure for `C[C@H](NC(=O)c1ccc2c(-c3ccc(C(F)(F)F)cc3)cccc2c1)c1ccccn1` [Compound 90, (S)—N-(1-(pyridin-2-yl)ethyl)-5-(4-(trifluoromethyl)phenyl)-2-naphthamide]: < 0.1 µM; for `CC(C)NC(=O)c1ccc2c(-c3ccc(C(F)(F)F)cc3)ccc(C(F)(F)F)c2c1` [Compound 87, N-isopropyl-8-(trifluoromethyl)-5-(4-(trifluoromethyl)phenyl)-2-naphthamide]: 0.1 to 1 µM.
The same measure, in the same setting: the result for `CC(C)NC(=O)c1ccc2c(-c3ccc(C(F)(F)F)cc3)cc(C3CC3)cc2c1` [Compound 43, 7-cyclopropyl-N-isopropyl-5-[4-(trifluoromethyl)phenyl]naphthalene-2-carboxamide] reads < 0.1 µM.
`O=C(O)c1cnc2c(-c3ccc(C(F)(F)F)cc3)cc(OC(F)(F)F)cc2c1` [Compound 324, 6-(Trifluoromethoxy)-8-[4-(trifluoromethyl)phenyl]quinoline-3-carboxylic acid]: the IC50 was < 0.1 µM.
On the same count and under the same terms, the same measure for `CNCCNC(=O)c1ccc2c(-c3ccc(C(F)(F)F)cc3)cccc2c1` [Compound 124, N-(2-(methylamino)ethyl)-5-(4-(trifluoromethyl)phenyl)-2-naphthamide]: 0.1 to 1 µM; for `C[C@H](NC(=O)c1cnc2c(-c3ccc(C(F)(F)F)cc3)cccc2c1)c1ccccn1` [Compound 103, (S)—N-(1-(pyridin-2-yl)ethyl)-8-(4-(trifluoromethyl)phenyl)quinoline-3-carboxamide]: < 0.1 µM.
On the same count and under the same terms, the same measure for `C#C[C@@H](C)NC(=O)c1ccc2c(-c3ccc(C(F)(F)F)cc3)cccc2c1` [Compound 275, (R)—N-(but-3-yn-2-yl)-5-(4-(trifluoromethyl)phenyl)-2-naphthamide]: < 0.1 µM; for `O=C(O)/C=C/CCNC(=O)c1ccc2c(-c3ccc(C(F)(F)F)cc3)cccc2c1` [Compound 209, (E)-5-[[5-[4-(trifluoromethyl)phenyl]naphthalene-2-carbonyl]amino]pent-2-enoic Acid]: 1 to 3 µM; for `C[C@@H](NC(=O)c1ccc2c(-c3ccc(C(F)(F)F)cc3)cccc2c1)C1CN(CCF)C1` [Compound 144, (R)—N-(1-(1-(2-fluoroethyl)azetidin-3-yl)ethyl)-5-(4-(trifluoromethyl)phenyl)-2-naphthamide]: 0.1 to 1 µM.
Still for that read-out and setting: the same measure for `COc1cc(-c2ccc(C(F)(F)F)cc2)c2ccc(C(=O)N[C@@H](C)c3ccccn3)cc2c1` [Compound 292, (S)-7-Methoxy-N-(1-(pyridin-2-yl)ethyl)-5-(4-(trifluoromethyl)phenyl)-2-naphthamide]: < 0.1 µM.
In the case of `C[C@H](NC(=O)c1ccc2c(-c3ccc(C(F)(F)F)cc3)cccc2c1)C1CC1` [Compound 289, (S)—N-(1-cyclopropylethyl)-5-(4-(trifluoromethyl)phenyl)-2-naphthamide], the IC50 is < 0.1 µM.
The same measure, in the same setting: the result for `C[C@@H](NC(=O)c1cnc2c(-c3ccc(C(F)(F)F)cc3)cccc2c1)C1CN(CCF)C1` [Compound 318, (R)—N-(1-(1-(2-fluoroethyl)azetidin-3-yl)ethyl)-8-(4-(trifluoromethyl)phenyl)quinoline-3-carboxamide] reads 0.1 to 1 µM.
Still for that read-out and setting: the same measure for `COc1cc(-c2ccc(C(F)(F)F)cc2)c2ncc(C(=O)NC(C)C)cc2c1` [Compound 97, N-isopropyl-6-methoxy-8-[4-(trifluoromethyl)phenyl]quinoline-3-carboxamide]: < 0.1 µM.
Same read-out and setting: the same measure for `O=C(N[C@@H](CO)c1ccccn1)c1ccc2c(-c3ccc(C(F)(F)F)cc3)cccc2c1` [Compound 163, N-[(1R)-2-hydroxy-1-(2-pyridyl)ethyl]-5-[4-(trifluoromethyl)phenyl]naphthalene-2-carboxamide]: < 0.1 µM; for `C[C@@H](CN1CCCC1)NC(=O)c1ccc2c(-c3ccc(C(F)(F)F)cc3)cccc2c1` [Compound 66, (S)—N-(1-(pyrrolidin-1-yl)propan-2-yl)-5-(4-(trifluoromethyl)phenyl)-2-naphthamide]: 0.1 to 1 µM.
On to `CC(C)(C)NC(=O)c1ccc2c(-c3ccc(C(F)(F)F)cc3)cccc2c1` [Compound 264, N-(tert-butyl)-5-(4-(trifluoromethyl)phenyl)-2-naphthamide], for which the IC50 lay within 0.1 to 1 µM.
On to `C#Cc1cc(-c2ccc(C(F)(F)F)cc2)c2ccc(C(=O)NC(C)C)cc2c1` [Compound 38, 7-ethynyl-N-isopropyl-5-(4-(trifluoromethyl)phenyl)-2-naphthamide], for which the IC50 was < 0.1 µM.
Still for that read-out and setting: the result for `CC(C)NC(=O)c1ccc2c(-c3ccc(C(F)(F)F)cc3)ccc(N)c2c1` [Compound 16, 8-amino-N-isopropyl-5-(4-(trifluoromethyl)phenyl)-2-naphthamide] reads < 0.1 µM; that for `CCNCC[C@@H](C)NC(=O)c1cnc2c(-c3ccc(C(F)(F)F)cc3)cccc2c1` [Compound 316, N-[(1R)-3-(ethylamino)-1-methyl-propyl]-8-[4-(trifluoromethyl)phenyl]quinoline-3-carboxamide], 0.1 to 1 µM.
On the same count and under the same terms, the result for `C[C@H](CCN(C)C)NC(=O)c1ccc2c(-c3ccc(C(F)(F)F)cc3)cccc2c1` [Compound 313, N-[(1R)-3-(dimethylamino)-1-methyl-propyl]-5-[4-(trifluoromethyl)phenyl]naphthalene-2-carboxamide] reads 0.1 to 1 µM.
In the case of `CC(=O)N1CC([C@H](C)NC(=O)c2ccc3c(-c4ccc(C(F)(F)F)cc4)cccc3c2)C1` [Compound 200, (S)—N-(1-(1-acetylazetidin-3-yl)ethyl)-5-(4-(trifluoromethyl)phenyl)-2-naphthamide], the IC50 lay within 0.1 to 1 µM.
The same measure, in the same setting: the same measure for `O=C(NCc1ccncn1)c1ccc2c(-c3ccc(C(F)(F)F)cc3)cccc2c1` [Compound 185, N-(pyrimidin-4-ylmethyl)-5-(4-(trifluoromethyl)phenyl)-2-naphthamide]: < 0.1 µM; for `CC#C[C@@H](C)NC(=O)c1ccc2c(-c3ccc(C(F)(F)F)cc3)cccc2c1` [Compound 273, (R)—N-(pent-3-yn-2-yl)-5-(4-(trifluoromethyl)phenyl)-2-naphthamide]: < 0.1 µM; for `C[C@H](NC(=O)c1ccc2c(-c3ccc(C(F)(F)F)cc3)cccc2c1)C1CNC1` [Compound 204, (S)—N-(1-(azetidin-3-yl)ethyl)-5-(4-(trifluoromethyl)phenyl)-2-naphthamide]: 0.1 to 1 µM.
The same measure, in the same setting: the result for `C[C@@H](NC(=O)c1cnc2c(-c3ccc(C(F)(F)F)cc3)cccc2c1)C1CN(CC(F)F)C1` [Compound 317, (R)—N-(1-(1-(2,2-difluoroethyl)azetidin-3-yl)ethyl)-8-(4-(trifluoromethyl)phenyl)quinoline-3-carboxamide] reads 0.1 to 1 µM; that for `NC(=O)c1nc(CNC(=O)c2ccc3c(-c4ccc(C(F)(F)F)cc4)cccc3c2)ns1` [Compound 184, 3-((5-(4-(Trifluoromethyl)phenyl)-2-naphthamido)methyl)-1,2,4-thiadiazole-5-carboxamide], < 0.1 µM.
For `CC(C)NC(=O)c1cnc2c(-c3ccc(C(F)(F)F)cc3)cc(OC(F)(F)F)cc2c1` [Compound 104, N-isopropyl-6-(trifluoromethoxy)-8-[4-(trifluoromethyl)phenyl]quinoline-3-carboxamide], the IC50 was < 0.1 µM.
